Literature values, collected in patent US20150352111A1, “Therapeutic Indications of Kinase Inhibitors” (Pulmokine, Inc., priority 2013, published 2015).

What was measured:
[1] = tested on: patients with PAH; details: cited from earlier work
[2] = tested on: PASMCs; details: cited from earlier work
[3] = tested on: phospho-ERK1/2; details: rat MCT model; cited from earlier work
[4] = tested on: rat MCT model of PAH; details: cited from earlier work

Structure (SMILES): Cc1ccc(NC(=O)c2ccc(CN3CCN(C)CC3)cc2)cc1Nc1nccc(-c2cccnc2)n1 [imatinib]
- primary efficacy parameter (6MWD) compared with placebo ([1]; 6 month period, US 2011/0190313): did not improve
- 6-min walk distance ([1]; IMPRES trial, patients with severe PAH): improvement
- migration of PASMCs [2]: inhibited
- phospho-ERK1/2 [3]: reduction
- RVSP [4]: decreased
- survival [4]: improved
